In patent US10561703B2, “Method of modulating sex hormone levels using a sex hormone secretion modulator” (GEMVAX & KAEL CO., LTD., priority 2013, dated 2020):

Tested on: Testosterone
Assay: Testosterone level in blood (serum CLIA) after repeated sc PEP-1
Format: in vivo, SD rats
Experimental: PEP-1 (peptide of SEQ ID NO: 1), lyophilized white powder, obtained according to the method mentioned in example 1 was dissolved in 0.9% of saline, considering the correction factor of PEP-1 (purity: 94.13%, content: 92.36%, correction factor: 1.15). 50 mg/mL stock solution was further diluted into 20 mg/mL, 2 mg/mL, and 1 mg/mL with 0.9% saline, and stored at 4° C. for a week until the use.
The purpose of this example is to confirm the change of sexual hormones in blood from SD rats with 7 days repeated daily administration of SEQ ID NO: 1 peptide, PEP-1. This experiment followed the Ethics Regulation of Animal Test by KAMSI Inc. (Korea Animal Medical Science Institute). In addition, this experiment, Non-GLP experiment, referred to the MFDS (Ministry of Food and Drug Safety) notification; Agent 2013-40 (5th April 2013), Principles of Good Laboratory Practice (1997).
SPF Rats (Crlj:CD(SD)) were purchased from ORIENTBio Inc. (Mokdong-ri, Buk-myeon, Gapyeong-gun, Gyeonggi-do, Republic of Korea). 75 male (6.5 weeks old and 190˜210 g) and 75 female (6.5 weeks old and 160˜180 g) rats were monitored for 4 days, and 64 of male and female rats (each) were selected for the experiment. Raising condition is as follows; 23±3° C. of temperature, […] of relative humidity, 10˜20 times/hr of number of air changes, 12 hours (8 a.m.˜8 p.m.) of lighting with 150˜300 Lux of intensity.
64 male and female […] (mentioned above) were divided into 8 groups. Administration regimen, for example, drugs, routes, dosages, and volumes were as follows:
The detailed administration regimen is as follows; once a day, twice a day and twice a week in each experimental group. Injection initiated at 10 a.m. every day, and each rat was injected at one minute intervals. Rats in Group 9, 10, 13 and 14 were injected twice a week. Administration of high dose test agent preceded that of low dose. The volume of injection was calculated using recently measured weight of rats, and it was 5 mL/kg. Subcutaneous injection was performed as follows; assistant tilted the back of rat upward, and experimenter sterilized the back of rat with 70% alcohol, followed by subcutaneous injection of test agent with 26 G syringe.
1.4 mL of blood sample (0.7 mL of serum) was collected after measurement of weight (Day 0). Next day (1 Day), 1.4 mL of blood sample (0.7 mL of serum) was collected twice after injection of test agent (4 hrs and 8 hrs after administration of test agent). For next 6 days (Day 2˜Day 7), 1.4 mL of blood was extracted once everyday (4 hours after injection of test agent). Dose and volume of test agent of each group followed the Table 3, and injection time zone was same every day. Blood was extracted from the jugular vein, and left at room temperature for 30 minutes. Serum was separated using centrifugation (10,000 rpm for 5 minutes), and stored at −70±5° C. in Deep freezer until the use. Blood extraction from each subject was done in the same time zone every day.
A CLIA (Chemi-Luminescence Immune Assay) Kit was used to analyze Testosterone, Estradiol E2, FSH (Follicle stimulating hormone), and LH (Luteinizing hormone). Analysis was completed within 48 hrs after blood extraction (Laboratory Medicine Department, Chung-Ang University Hospital), and detailed method is as follows; One-way ANOVA was used to verify the comparison between the vehicle and PEP-1, and between different doses of PEP-1. For further analysis, Duncan test was used as parametric test and Dunnett's test as non-parametric test. p<0.05 represents the statistical significance, and all statistical analysis was carried out with SPSS 10.1.
Testosterone was analyzed using the samples prepared from example 2. 15 μL of serum was used for analysis. Fundamentals of analysis is competitive immunoassay based on direct chemi-luminescent. As mentioned in example 2, CLIA (Chemi-luminescence immune assay) Kit was used for Testosterone analysis, following the manufacture's protocol. […]

EARPALLTSRLRFIPK (listed as Homo sapiens) [PEP-1, hormone secretion modulator / GnRH analog]
Testosterone level in blood (G11 Female 100 mg/kg sc 1/day x7, 6 days): 1.01 ng/dL
Testosterone level in blood (G11 Female 100 mg/kg sc 1/day x7, 7 days): 1.25 ng/dL
Testosterone level in blood (G11 Female 100 mg/kg sc 1/day x7, pre): 1.79 ng/dL
Testosterone level in blood (G12 Male 100 mg/kg sc 1/day x7, 4 hr): 0.08 ng/dL
Testosterone level in blood (G12 Male 100 mg/kg sc 1/day x7, 8 hr): 0.01 ng/dL
Testosterone level in blood (G12 Male 100 mg/kg sc 1/day x7, 2 days): 0.01 ng/dL
Testosterone level in blood (G12 Male 100 mg/kg sc 1/day x7, 3 days): 0.05 ng/dL
Testosterone level in blood (G12 Male 100 mg/kg sc 1/day x7, 4 days): 0.17 ng/dL
Testosterone level in blood (G12 Male 100 mg/kg sc 1/day x7, 5 days): 0.11 ng/dL
Testosterone level in blood (G12 Male 100 mg/kg sc 1/day x7, 6 days): 0.12 ng/dL
Testosterone level in blood (G12 Male 100 mg/kg sc 1/day x7, 7 days): 0.12 ng/dL
Testosterone level in blood (G12 Male 100 mg/kg sc 1/day x7, pre): 0.18 ng/dL
Testosterone level in blood (G13 Female 100 mg/kg sc 2/week x2 (days 1,7), 4 hr): 7.48 ng/dL
Testosterone level in blood (G13 Female 100 mg/kg sc 2/week x2 (days 1,7), 8 hr): 6.34 ng/dL
Testosterone level in blood (G13 Female 100 mg/kg sc 2/week x2 (days 1,7), 2 days): 0.97 ng/dL
Testosterone level in blood (G13 Female 100 mg/kg sc 2/week x2 (days 1,7), 3 days): 1.65 ng/dL
Testosterone level in blood (G13 Female 100 mg/kg sc 2/week x2 (days 1,7), 4 days): 1.25 ng/dL
Testosterone level in blood (G13 Female 100 mg/kg sc 2/week x2 (days 1,7), 5 days): 1.3 ng/dL
Testosterone level in blood (G13 Female 100 mg/kg sc 2/week x2 (days 1,7), 6 days): 2.54 ng/dL
Testosterone level in blood (G13 Female 100 mg/kg sc 2/week x2 (days 1,7), 7 days): 12.35 ng/dL
Testosterone level in blood (G13 Female 100 mg/kg sc 2/week x2 (days 1,7), pre): 1.71 ng/dL
Testosterone level in blood (G14 Male 100 mg/kg sc 2/week x2 (days 1,7), 4 hr): 0.07 ng/dL
Testosterone level in blood (G14 Male 100 mg/kg sc 2/week x2 (days 1,7), 8 hr): 0.01 ng/dL
Testosterone level in blood (G14 Male 100 mg/kg sc 2/week x2 (days 1,7), 2 days): 0.01 ng/dL
Testosterone level in blood (G14 Male 100 mg/kg sc 2/week x2 (days 1,7), 3 days): 0.13 ng/dL
Testosterone level in blood (G14 Male 100 mg/kg sc 2/week x2 (days 1,7), 4 days): 0.17 ng/dL
Testosterone level in blood (G14 Male 100 mg/kg sc 2/week x2 (days 1,7), 5 days): 0.13 ng/dL
Testosterone level in blood (G14 Male 100 mg/kg sc 2/week x2 (days 1,7), 6 days): 0.14 ng/dL
Testosterone level in blood (G14 Male 100 mg/kg sc 2/week x2 (days 1,7), 7 days): 0.15 ng/dL
Testosterone level in blood (G14 Male 100 mg/kg sc 2/week x2 (days 1,7), pre): 0.13 ng/dL
Testosterone level in blood (G15 Female 250 mg/kg sc 1/day x7, 4 hr): 6.27 ng/dL
Testosterone level in blood (G15 Female 250 mg/kg sc 1/day x7, 8 hr): 8.2 ng/dL
Testosterone level in blood (G15 Female 250 mg/kg sc 1/day x7, 2 days): 3.77 ng/dL
Testosterone level in blood (G15 Female 250 mg/kg sc 1/day x7, 3 days): 2.09 ng/dL
Testosterone level in blood (G15 Female 250 mg/kg sc 1/day x7, 4 days): 0.8 ng/dL
Testosterone level in blood (G15 Female 250 mg/kg sc 1/day x7, 5 days): 0.75 ng/dL
Testosterone level in blood (G15 Female 250 mg/kg sc 1/day x7, 6 days): 1.27 ng/dL
Testosterone level in blood (G15 Female 250 mg/kg sc 1/day x7, 7 days): 1.52 ng/dL
Testosterone level in blood (G15 Female 250 mg/kg sc 1/day x7, pre): 1.65 ng/dL
Testosterone level in blood (G16 Male 250 mg/kg sc 1/day x7, 4 hr): 0.11 ng/dL
Testosterone level in blood (G16 Male 250 mg/kg sc 1/day x7, 8 hr): 0.03 ng/dL
Testosterone level in blood (G16 Male 250 mg/kg sc 1/day x7, 2 days): 0 ng/dL
Testosterone level in blood (G16 Male 250 mg/kg sc 1/day x7, 3 days): 0.08 ng/dL
Testosterone level in blood (G16 Male 250 mg/kg sc 1/day x7, 4 days): 0.18 ng/dL
Testosterone level in blood (G16 Male 250 mg/kg sc 1/day x7, 5 days): 0.09 ng/dL
Testosterone level in blood (G16 Male 250 mg/kg sc 1/day x7, 6 days): 0.14 ng/dL
Testosterone level in blood (G16 Male 250 mg/kg sc 1/day x7, 7 days): 0.12 ng/dL
Testosterone level in blood (G16 Male 250 mg/kg sc 1/day x7, pre): 0.18 ng/dL
Testosterone level (female group, after injection of PEP-1): 0.05 ng/dL
Effect on the Testosterone level (female rat): does not have significant effect
Testosterone level (male groups, Day 1, all groups injected with PEP-1): 6 to 10 ng/dL
Testosterone level, PEP-1 versus vehicle (male groups, after Day 3): no significant difference between PEP-1 and vehicle
